Data from patent US10807951B2, “mTORC1 modulators” (THE REGENTS OF THE UNIVERSITY OF CALIFORNIA, priority 2017, dated 2020).

What was measured:
mTORC2 = assay: p-AKT signaling in Hela cells by immunoblotting; type: cell-based; conditions: up to 50 μM
LAMTOR5 [1] = target: T1, LAMTOR5 (Homo sapiens, UniProt O43504); assay: Gel-based ABPP against IA-alkyne labeling of pure LAMTOR5 protein; type: binding
Source text: FIGS. 9A-9C. Potency and selectivity of YP 1-44 analogs. (FIG. 9A) initial YP 1-44 analogs and their relative potency against IA-alkyne labeling of pure human LAMTOR5 protein visualized by gel-based ABPP (a). Protein expression levels were also ascertained by silver staining (b). (FIG. 9B) Gel-based ABPP IA-alkyne cysteine-reactivity analysis of YP 1-44 analogs against Rag-Ragulator complex proteins (a). Protein expression levels were also ascertained by silver staining (b). (FIG. 9C) Hela whole cell proteome gel-based ABPP analysis of IA-alkyne cysteine-reactivity with YP 1-44 analogs (a). Protein expression levels were also ascertained by silver staining (b).
Thus, we performed medicinal chemistry to optimize the potency and selectivity of our initial hits by addition of further bulk to the core YP 1-44 scaffold (FIGS. 9A-9C; FIG. 5B). We initially screened these compounds against both LAMTOR5 and the Ragulator complex using gel-based ABPP methods competing the binding of these YP 1-44 analogs against IA-alkyne labeling of these proteins (FIG. 5C, FIG. 9). We also tested these compounds against Hela cell whole proteome cysteine reactivity to get initial read-outs of proteome-wide selectivity (FIGS. 9A-9C, FIG. 5D).

mTORC1 = mTORC1 signaling in tissues of injected mice; conditions: injection 100 mg/kg, heart, skeletal muscle, kidney
autophagy = assay: Immunoblotting for autophagic markers LC3b and p62 in HEK-293A cells; type: cell-based
Procedure: FIGS. 6A-6D. CC 1-44 inhibits mTORC1 signaling and activates autophagy. (FIG. 6A) Visual IP experiment monitoring binding of GFP-RagB to RFP-tagged, bead-bound Lamtor complex. […] (FIG. 6B) Immunofluorescence for endogenous RagA and LAMP2 in HEK-293A cells treated with DMSO, YP 1-44 or CC 1-44 for 2 h. […] (FIG. 6C) Immunofluorescence for endogenous mTOR and LAMP2 in HEK-293A cells treated with DMSO or CC 1-44 for 2 h. […] (FIG. 6D) Immunoblotting for autophagic markers LC3b and p62 from HEK-293A cells treated with DMSO (lane 1) or CC 1-44 (lane 3) for 2 h.
In cells treated with CC 1-44, autophagy becomes activated within 1 h, as judged by accumulation of cleaved LC3b and increased degradation of p62 (FIG. 6D).

LAMTOR5 [2] = target: T1, LAMTOR5; assay: Rhodamine labeling with alkyne probe on purified Lamtor-Rag complexes; type: binding; conditions: excess unlabeled compound
Source text: FIGS. 8A-8B. (FIG. 8A) Structures of CC 2-11 and CC 1-44. CC 2-11 bears an alkyne group on a separate ring from the cysteine-reactive warhead. The presence of the alkyne group enables us to directly label the modified target protein (e.g. Lamtor5) with biotin or rhodamine groups, either in gels or in complex proteomes. […] Thus, CC 2-11 allows precise mapping of the target cysteines as well as accurate identification of the off-targets.
We also synthesized a CC 1-44 derivative, named CC 2-11, which bears an alkyne group on a separate ring from the cysteine-reactive warhead (FIG. 8A). The presence of the alkyne group enables us to directly label the modified target protein (e.g. Lamtor5) with biotin or rhodamine groups, either in gels or in complex proteomes. […] Thus, CC 2-11 will allow precise mapping of the target cysteines as well as accurate identification of the off-targets.

[3] = system: mTOR localization to LAMP2-positive lysosomes; assay: mTORC1 recruitment assay, immunofluorescence in HeLa cells; type: cell-based; conditions: 50 μM, 1 h, amino acid stimulation
Procedure: (§1) Next, we sought to determine whether YP 1-44 had expected cellular effects in disrupting the TORC1 complex, recruitment of TORC1 to the lysosome, and TORC1 signaling. We treated Hela cells with YP 1-44 for 1 h with and without amino acid stimulation. […] This finding is consistent with the role of Lamtor as an obligate scaffold not only for mTORC1 but also for the Rag GTPases at the lysosome. […] Thus, our results establish that YP 1-44 abolishes mTORC1 signaling both in vitro and in live cells by preventing mTORC1 localization to the lysosome, and that this action occurs via disruption of the Lamtor-Rag scaffold.
HeLa cells were plated on fibronectin-coated glass coverslips in 6-well plates (35 mm diameter/well), at 300,000-500,000 cells/well. 12-16 hours later, cells were subjected to amino acid depletion for 1 h in the presence of 50 uM compounds or an equivalent volume of DMSO, restimulated with a complete amino acid mix for 10 minutes, and fixed in 4% paraformaldehyde (in PBS) for 15 min at RT. The coverslips were rinsed twice with PBS and cells were permeabilized with 0.1% (w/v) Saponin in PBS for 10 min. […]

RagC and RagA = assay: Rag GTPase lysosomal localization, immunofluorescence in HeLa cells; type: cell-based; conditions: 50 μM, 1 h
Procedure: as §1
HeLa cells were plated on fibronectin-coated glass coverslips in 6-well plates (35 mm diameter/well), at 300,000-500,000 cells/well. 12-16 hours later, cells were subjected to amino acid depletion for 1 h in the presence of 50 uM compounds or an equivalent volume of DMSO, restimulated with a complete amino acid mix for 10 minutes, and fixed in 4% paraformaldehyde (in PBS) for 15 min at RT. The coverslips were rinsed twice with PBS and cells were permeabilized with 0.1% (w/v) Saponin in PBS for 10 min. After rinsing twice with PBS, the slides were incubated with primary antibody in 5% normal donkey serum for 1 hr at room temperature, rinsed four times with PBS, and incubated with fluorophore-conjugated secondary antibodies produced in goat or donkey (Life Technologies, diluted 1:1000 in 5% normal donkey serum) for 45 min at room temperature in the dark, washed four times with PBS. Coverslips were mounted on glass slides using Vectashield (Vector Laboratories) and imaged on a spinning disk confocal system (Andor Revolution on a Nikon Eclipse Ti microscope).

| SMILES | effect on canonical mTORC2 substrate pAKT (mTORC2) | potency against IA-alkyne labeling of LAMTOR5 (LAMTOR5 [1]) | mTORC1 signaling as assessed by phospho-S6 and 4EBP1 (mTORC1) | autophagy (LC3b band increase, p62 band disappearance) (autophagy; HEK-293A cells, 2 h) | total autophagic flux (autophagy; HEK-293A cells, 2 h, with Bafilomycin A) | time to autophagy activation (accumulation of cleaved LC3b, increased degradation of p62) (autophagy; treated cells) [h] | competition of CC 2-11 rhodamine labeling signal (LAMTOR5 [2]) | amino acid-induced mTOR localization to LAMP2-positive lysosomes [3] | amino acid-induced mTOR localization to LAMP2-positive lysosomes ([3]; listed as YP1-44) | RagA localization to LAMP2-positive lysosomes (RagC and RagA) | RagC localization to LAMP2-positive lysosomes (RagC and RagA) | RagA localization to LAMP2-positive lysosomes (RagC and RagA; listed as YP1-44) | RagC localization to LAMP2-positive lysosomes (RagC and RagA; listed as YP1-44) |
| --- | --- | --- | --- | --- | --- | --- | --- | --- | --- | --- | --- | --- | --- |
| C=CC(=O)N1CCc2c(OCc3cc(C(F)(F)F)cc(C(F)(F)F)c3)cccc21 [CC 1-44] | did not affect | desirable potency | dramatic inhibition of mTORC1 signaling | activation of autophagy | increased | ≤ 1 | competes | – | – | – | – | – | – |
| C=CC(=O)n1ccc2ccccc21 [YP 1-44] | – | – | – | – | – | – | – | disrupts amino acid-induced mTOR localization | mTORC1 recruitment fails | no longer localized to the lysosome | no longer localized to the lysosome | causes dispersion of RagA from LAMP2-positive lysosomes | causes dispersion of RagC from LAMP2-positive lysosomes |
